Assay results published in the supplement of paper PMC10307832.

Experiments:
Test in all cases: relative viability (nuclei count vs DMSO), 5 days (fraction); higher = more cells survive
[1] = compound: COc1cc2nccc(Oc3ccc(NC(=O)C4(C(=O)Nc5ccc(F)cc5)CC4)cc3)c2cc1OC [Cabozantinib] + Cc1nc(NC(=O)N2CCC[C@H]2C(N)=O)sc1-c1ccnc(C(C)(C)C(F)(F)F)c1 [Alpelisib] (partner 2 µM)
Summary of the method: (§1)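 Medians of duplicate plates are given as relative viability. That measure is the nuclei count in treated wells divided by the count in vehicle wells. Counts were taken on 4× images of lung cancer cell lines in 1536-well plates, 5 days after pin-tool dosing the day after seeding with one drug alone or a fixed anchor-drug dose plus five library-drug doses (not always all listed) in √10 steps.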

[2] = compound: COc1cc2nccc(Oc3ccc(NC(=O)C4(C(=O)Nc5ccc(F)cc5)CC4)cc3)c2cc1OC [Cabozantinib] + CC1(C)CCC(c2ccc(Cl)cc2)=C(CN2CCN(c3ccc(C(=O)NS(=O)(=O)c4ccc(N[C@H](CCN5CCOCC5)CSc5ccccc5)c(S(=O)(=O)C(F)(F)F)c4)cc3)CC2)C1 [Navitoclax] (partner 0.5 µM)
Summary of the method: as §1

[3] = compound: O[C@@H](COc1cccc2ncccc12)CN1CCN([C@@H]2c3ccccc3[C@@H]3[C@H](c4ccccc42)C3(F)F)CC1 [Zosuquidar] + CC(=O)Nc1cccc(-n2c(=O)n(C3CC3)c(=O)c3c(Nc4ccc(I)cc4F)n(C)c(=O)c(C)c32)c1 [Trametinib] (partner 0.02 µM)
Summary of the method: as §1

[4] = compound: C1=CC(=CC=C1NC(=S)NNC2=C(C=C(C=C2[N+](=O)[O-])C(F)(F)F)[N+](=O)[O-])F [Kobe2602] + COc1cc2c(Oc3ccc(NC(=O)C4(C(=O)Nc5ccc(F)cc5)CC4)cc3F)ccnc2cc1OCCCN1CCOCC1 [Foretinib] (partner 0.25 µM)
Summary of the method: as §1

Cell Line	relative viability ([1]; first compound 0.02 µM)	relative viability ([1]; first compound 0.06325 µM)	relative viability ([1]; first compound 0.2 µM)	relative viability ([1]; first compound 0.6325 µM)	relative viability ([1]; first compound 2 µM)	relative viability ([2]; first compound 0.02 µM)	relative viability ([2]; first compound 0.06325 µM)	relative viability ([2]; first compound 0.2 µM)	relative viability ([2]; first compound 0.6325 µM)	relative viability ([2]; first compound 2 µM)	relative viability ([3]; first compound 0.01 µM)	relative viability ([3]; first compound 0.03162 µM)	relative viability ([3]; first compound 0.1 µM)	relative viability ([3]; first compound 0.3162 µM)	relative viability ([3]; first compound 1 µM)	relative viability ([4]; first compound 0.2 µM)	relative viability ([4]; first compound 0.6325 µM)	relative viability ([4]; first compound 2 µM)	relative viability ([4]; first compound 6.325 µM)	relative viability ([4]; first compound 20 µM)
HCC-44	0.864	0.784	0.808	0.757	0.855	1.01	1.1	1.02	1.07	0.965	1.01	0.999	0.96	1.09	1.13					
HCC-78	0.26	0.298	0.227	0.201	0.198	0.71	0.682	0.307	0.224	0.186	0.799			1	0.759	0.628	0.541	0.669	0.575	0.577
HCC-366	0.585	0.619	0.445	0.328	0.294	1.15	1.11	1.16	1.03	1.06	0.324	0.35	0.367	0.46	0.259	0.945	0.969	0.966	0.919	0.959
HCC-827	0.977	1.04		0.925	0.9	1.05	1.07		1.05	0.981	0.539	0.486	0.476	0.535	0.529	0.999	1.11	1.03	1.04	1.1
HOP-62	0.981	1.02	1.43	0.807	1.08	1.13	0.987	1.07	1.05	1.13	0.384	0.404	0.393	0.396	0.37	1.08	1.16	1.18	1.1	1.08
IA-LM	0.874	0.876	0.928	0.941	0.952	1.1	0.912	1.02	1.01	0.965						1.09	1.01	0.953	1.24	1.01
LC-2-ad	0.869	0.976	0.834	0.659	0.45	0.454	0.57	0.541	0.35	0.325	0.91	0.901	0.812	0.92	0.911	0.94	0.946	0.932	1.03	0.996
LCLC-97TM1		0.259	0.264	0.284	0.297		0.5	0.618	0.484	0.589	0.171	0.19		0.21	0.206	0.834	0.928	1.01	0.956	0.924
LCLC-103H	1.08	0.859	0.951	0.861	0.752						0.679	0.654	0.679	0.676	0.622	0.82	0.905	0.751	0.832	0.723
